Key:
HIV-1 RT [1] = molecular target: T1, HIV-1 RT (Human immunodeficiency virus type 1 group M subtype B, UniProt P03366); experiment: Homopolymer HIV Reverse Transcriptase Assay: Inhibitor IC50 Determination; type: biochemical; conditions: purified recombinant enzyme, poly(rA)/oligo(dT)16 template-primer, [3H] dTTP, 37° C. 30 min
Method: Homopolymer HIV Reverse Transcriptase Assay: Inhibitor IC50 Determination
HIV-1 RT assay was carried out in 96-well Millipore MultiScreen MADVNOB50 plates using purified recombinant enzyme and a poly(rA)/oligo(dT)16 template-primer in a total volume of 50 μL. The assay constituents were 50 mM Tris/HCl, 50 mM NaCl, 1 mM EDTA, 6 mM MgCl2, 5 μM dTTP, 0.15 μCi [^3H] dTTP, 5 μg/ml poly (rA) pre annealed to 2.5 μg/ml oligo (dT)16 and a range of inhibitor concentrations in a final concentration of 10% DMSO. reactions were initiated by adding 4 nM HIV-1 RT and after incubation at 37° C. for 30 min, they were stopped by the addition of 50 μl ice cold 20%TCA and allowed to precipitate at 4° C. for 30 min. The precipitates were collected by applying vacuum to the plate and sequentially washing with 3×200 μl of 10% TCA and 2×200 μl 70% ethanol. Finally, the plates were dried and radioactivity counted in a Packard TopCounter after the addition of 25 μl scintillation fluid per well. IC50's were calculated by plotting % inhibition versus log10 inhibitor concentrations.

HIV-1 RT [2] = molecular target: T1, HIV-1 RT; experiment: Heteropolymer HIV reverse Transcriptase Assay: Inhibitor IC50 Determination; type: biochemical; conditions: RNA-dependent DNA polymerase activity, biotinylated DNA primer/RNA template, SPA beads, 30°C 30 min
Method: Heteropolymer HIV reverse Transcriptase Assay: Inhibitor IC50 Determination
RNA-dependent DNA polymerase activity was measured using a biotinylated primer oligonucleotide and tritiated dNTP substrate. Newly synthesized DNA was quantified by capturing the biotinylated primer molecules on streptavidin coated Scintillation Proximity Assay (SPA) beads (Amersham). The sequences of the polymerase assay substrate were: 18nt DNA primer, 5′-Biotin/GTC CCT GTT CGG GCG CCA-3′ (SEQ. ID NO. 2); 47nt RNA template, 5′-GGGUCUCUCUGGUUAGACCACUCUAGCAGUGGCGCCCGAACAGGGAC-3′ (SEQ ID NO. 1). The biotinylated DNA primer was obtained from the Integrated DNA Technologies Inc. and the RNA template was synthesized by Dharmacon. The DNA polymerase assay (final volume 50 μl) contained 32 nM biotinylated DNA primer, 64 nM RNA substrate, dGTP, dCTP, dTTP (each at 5 μM), 103 nM [^3H]-dATP (specific activity=[…]), in 45 mM Tris-HCl, pH 8.0, 45 mM NaCl, 2.7 mM Mg(CH3COO)2, 0.045% Triton X-100 w/v, 0.9 mM EDTA. The reactions contained 5 μl of serial compound dilutions in 100% DMSO for IC50 determination and the final concentrations of DMSO were 10%. Reactions were initiated by the addition of 30 μl of the HIV-1-RT enzyme (final concentrations of 1-3 nM). Protein concentrations were adjusted to provide linear product formation for at least 30 min of incubation. After incubation at 30°C for 30 min, the reaction was quenched by addition of 50 μl of 200 mM EDTA (pH 8.0) and 2 mg/ml SA-PVT SPA beads (Amersham, RPNQ0009, reconstituted in 20 mM Tris-HCl, pH 8.0, 100 mM EDTA and 1% BSA). The beads were left to settle overnight and the SPA signals were counted in a 96-well top counter-NXT (Packard). IC50 values were obtained by sigmoidal regression analysis using GraphPad Prism 3.0 (GraphPad Software, Inc.).

Structure (SMILES) | melting point [°C] | IC50 (HIV-1 RT [1]) [nM] | IC50 (HIV-1 RT [2]) [nM]
Cc1cc(C(=O)O)ccc1NC(=O)Cc1ccc(Br)c(Oc2cc(C#N)cc(C(F)F)c2)c1F | 267.9 to 268.1 |  | 
Cc1cc(C(=O)NC2CCNC2)ccc1NC(=O)Cc1ccc(Br)c(Oc2cc(Cl)cc(C#N)c2)c1F (centres unmarked) | 117.8 to 120 |  | 
CCN1CCCC1CNC(=O)c1ccc(NC(=O)Cc2ccc(Br)c(Oc3cc(Cl)cc(C#N)c3)c2F)c(Cl)c1 (centres unmarked) | 212 |  | 
CS(=O)(=O)CCNC(=O)c1ccc(NC(=O)Cc2ccc(Br)c(Oc3cc(Cl)cc(C#N)c3)c2F)c(Cl)c1 | 235.5 |  | 
Cc1cc(C(=O)NCCN(C)C)ccc1NC(=O)Cc1ccc(Cl)c(Oc2cc(Cl)cc(C#N)c2)c1F [Compound I-5, 4-{2-[4-Chloro-3-(3-chloro-5-cyano-phenoxy)-2-fluoro-phenyl]-acetylamino}-N-(2-dimethylamino-ethyl)-3-methyl-benzamide; compound with trifluoro-acetic acid] |  | 15.4 | 
Cc1cc(C(=O)NC[C@@H](C)O)ccc1NC(=O)Cc1ccc(Cl)c(Oc2cc(Cl)cc(C#N)c2)c1F [Compound I-10, 4-{2-[4-Chloro-3-(3-chloro-5-cyano-phenoxy)-2-fluoro-phenyl]-acetylamino}-N-((R)-2-hydroxy-propyl)-3-methyl-benzamide] | 249 to 249.4 | 18.3 | 
Cc1cc(C(=O)NCc2cccnc2)ccc1NC(=O)Cc1ccc(Cl)c(Oc2cc(Cl)cc(C#N)c2)c1F [Compound I-15, 4-{2-[4-Chloro-3-(3-chloro-5-cyano-phenoxy)-2-fluoro-phenyl]-acetylamino}-3-methyl-N-pyridin-3-ylmethyl-benzamide; compound with trifluoro-acetic acid] |  | 16.6 | 
Cc1cc(C(=O)NCC(O)CO)ccc1NC(=O)Cc1ccc(Cl)c(Oc2cc(Cl)cc(C#N)c2)c1F (centres unmarked) [Compound I-20, 4-{2-[4-Chloro-3-(3-chloro-5-cyano-phenoxy)-2-fluoro-phenyl]-acetylamino}-N-(2,3-dihydroxy-propyl)-3-methyl-benzamide] |  | 20.6 | 
Cc1cc(C(=O)NCCN2CCC(O)CC2)ccc1NC(=O)Cc1ccc(Br)c(Oc2cc(Cl)cc(C#N)c2)c1F [Compound I-25, 4-{2-[4-Bromo-3-(3-chloro-5-cyano-phenoxy)-2-fluoro-phenyl]-acetylamino}-N-[2-(4-hydroxy-piperidin-1-yl)-ethyl]-3-methyl-benzamide] | 219.6 to 221.6 | 55.2 | 
Cc1cc(C(=O)NCCN2CCNCC2)ccc1NC(=O)Cc1ccc(Br)c(Oc2cc(Cl)cc(C#N)c2)c1F [Compound I-30, 4-{2-[4-Bromo-3-(3-chloro-5-cyano-phenoxy)-2-fluoro-phenyl]-acetylamino}-3-methyl-N-(2-piperazin-1-yl-ethyl)-benzamide] | 126.5 to 127 | 20.9 | 
Cc1cc(C(=O)NS(C)(=O)=O)ccc1NC(=O)Cc1ccc(Br)c(Oc2cc(Cl)cc(C#N)c2)c1F [Compound I-36, 2-[4-Bromo-3-(3-chloro-5-cyano-phenoxy)-2-fluoro-phenyl]-N-(4-methanesulfonylaminocarbonyl-2-methyl-phenyl)-acetamide] | 244.9 to 246.7 | 4.6 | 
Cl.N#Cc1cc(Cl)cc(Oc2c(Br)ccc(CC(=O)Nc3ccc(C(=O)NCCN4CCC(F)(F)CC4)cc3Cl)c2F)c1 [Compound I-40, 4-{2-[4-Bromo-3-(3-chloro-5-cyano-phenoxy)-2-fluoro-phenyl]-acetylamino}-3-chloro-N-[2-(4,4-difluoro-piperidin-1-yl)-ethyl]-benzamide; hydrochloride salt] | 140.2 to 143.3 |  | 37
CC(C)(CN1CCCC1)NC(=O)c1ccc(NC(=O)Cc2ccc(Br)c(Oc3cc(Cl)cc(C#N)c3)c2F)c(Cl)c1 [Compound I-45, 4-{2-[4-Bromo-3-(3-chloro-5-cyano-phenoxy)-2-fluoro-phenyl]-acetylamino}-3-chloro-N-(1,1-dimethyl-2-pyrrolidin-1-yl-ethyl)-benzamide] | 70 |  | 4.1
CN1CCC(NC(=O)c2ccc(NC(=O)Cc3ccc(Br)c(Oc4cc(Cl)cc(C#N)c4)c3F)c(Cl)c2)C1 (centres unmarked) [Compound I-50, 4-{2-[4-Bromo-3-(3-chloro-5-cyano-phenoxy)-2-fluoro-phenyl]-acetylamino}-3-chloro-N-(1-methyl-pyrrolidin-3-yl)-benzamide] | 204 |  | 6.9
N#Cc1cc(Cl)cc(Oc2c(Br)ccc(CC(=O)Nc3ccc(C(=O)NC4CCS(=O)(=O)C4)cc3Cl)c2F)c1 (centres unmarked) [Compound I-55, 4-{2-[4-Bromo-3-(3-chloro-5-cyano-phenoxy)-2-fluoro-phenyl]-acetylamino}-3-chloro-N-(1,1-dioxo-tetrahydro-1λ^6-thiophen-3-yl)-benzamide] | 236.6 |  | 16.3

From patent publication US7754919B2, “Non-nucleoside reverse transcriptase inhibitors” (Roche Palo Alto LLC, priority 2005, dated 2010)
